From patent US12473293B2, “Pharmacologically active heterocyclic-substituted pyrazolo[1,5-a]pyrimidine derivatives” (Richter Gedeon Nyrt., priority 2020, dated 2025)

What was measured:
GABAB receptor = target: T1, GABAB receptor (Rattus norvegicus, UniProt O88871+Q9Z0U4); assay: In vitro [35S]GTPγS binding assay in rat cortical membranes; type: biochemical; settings: PAM EC50, [35S]GTPγS binding, read-out: In vitro PAM potency
T1 construct: from tissue; host or cells: rat brain cortex membranes
Procedure: In Vitro [^35S]GTPγS Binding Assay in Rat Cortical Membranes
Cortices of freshly harvested rat brains were dissected on an ice-cold surface and homogenized by a glass Dounce homogeniser immediately in ice-cold buffer containing 50 mM Tris, 5 mM MgCl2 and 1 mM EDTA (pH=7.6). Tissue homogenates were centrifuged at 40000 g for 15 min at 4° C. Membrane pellets were resuspended in the same buffer and membranes were incubated for 10 min at 30° C. in a shaking water bath to eliminate endogenous GABA. Homogenates were centrifuged again under the same conditions. The final pellets were resuspended in ice-cold buffer (pH=7.6) containing 50 mM Tris, 100 mM NaCl, 7 mM MgCl2, 1 mM EDTA and 1 mM dithiotreithol (DTT) to yield a concentration of 20 mg tissue weight/ml and frozen at −70° C. until use. The assay was done in a buffer containing 50 mM Tris (pH=7.4), 100 mM NaCl, 7 mM MgCl2, 1 mM EDTA and 1 mM DTT. Each assay tube contained 150 μL GDP (in a final concentration of 50 μM), 100 μL ligand and 125 μL of the membrane suspension ([…]). The assay tubes were preincubated for 10 min at 30° C. to assure equilibrium. Nonspecific binding was determined in the presence of 10 μM GTPγS; basal binding was determined in the presence of buffer only. After addition of […] [^35S]GTPγS in a volume of 25 μL to the tubes, membranes were incubated for an additional 60 min at 30° C. The assay was terminated by rapid filtration through Packard UniFilter GF/B using a Packard harvester and washed four times with 1 ml ice-cold buffer. After drying the filters at 40° C. for 1 h, 40 μL Microscint (Packard) was added to the filters and radioactivity of the filters was determined by a TopCount NXT (PerkinElmer, Waltham, MA; Alper and Nelson, Eur. J. Pharmacol. 1998, 343, 303-312; Rinken et al, Biochem. Pharmacol. 1999, 57, 155-162). Data thus gathered were used to determine PAM EC50 values for each compound as primary in vitro activity end point.
In Table 1 compounds of this invention measured in the [^35S]GTPγS binding assay are listed.

male Wistar rats = assay: Foot shock-induced ultrasonic vocalization (USV) in adult rats; type: in vivo; settings: Rattus norvegicus, po, p.o., 1 h before shocking
Procedure: Foot Shock-Induced Ultrasonic Vocalization (USV) in Adult Rats
Under stressful conditions, adult rats emit 22 kHz ultrasounds that can be reduced by various pharmacological treatments (De Vry et al, Eur. J. Pharmacol. 1993, 249, 331-339; Sanchez, Eur. J. Pharmacol. 2003, 463, 133-143). […] Therefore, a foot shock-induced vocalization paradigm in adult rats was used to assess in vivo efficacy of centrally acting GABAB receptor ligands. Behavioral measurements were carried out on male Wistar rats (200-250 g, Toxicoop, Hungary or Janvier, France). Rats were housed in groups of four in plastic cages with a wire grid top in a temperature and light-controlled laboratory animal care unit (22±2° C., 12-h light/dark cycle, lights on at 6:00 AM) with ad libitum access to commercial pellet rat food and tap water. Investigations were approved by the Local Ethical Committee of Gedeon Richter Plc. and were carried out in strict compliance with the European Directive 2010/63/EU regarding the care and use of laboratory animals for experimental procedures and all efforts were made to minimize the number of animals as well as their suffering. In order to evoke emission of ultrasounds, animals were footshocked after a habituation period of 30 s (6 shocks, 1 s, 0.8 mA each, inter-shock interval 10 s) in a sound attenuated shocking chamber (Experimetria, 40×40×80 cm). […] Vocalizations were measured right after the last footshock for 10 min with a Metris Sonotrack system and the total time of vocalizations was registered. Vocalization of parallel vehicle treated animals was considered as control value and inhibition percent was calculated for each compound.
In Table 2 compounds of this invention measured in the USV assay are listed.

T1 sequence (O88871 41-940): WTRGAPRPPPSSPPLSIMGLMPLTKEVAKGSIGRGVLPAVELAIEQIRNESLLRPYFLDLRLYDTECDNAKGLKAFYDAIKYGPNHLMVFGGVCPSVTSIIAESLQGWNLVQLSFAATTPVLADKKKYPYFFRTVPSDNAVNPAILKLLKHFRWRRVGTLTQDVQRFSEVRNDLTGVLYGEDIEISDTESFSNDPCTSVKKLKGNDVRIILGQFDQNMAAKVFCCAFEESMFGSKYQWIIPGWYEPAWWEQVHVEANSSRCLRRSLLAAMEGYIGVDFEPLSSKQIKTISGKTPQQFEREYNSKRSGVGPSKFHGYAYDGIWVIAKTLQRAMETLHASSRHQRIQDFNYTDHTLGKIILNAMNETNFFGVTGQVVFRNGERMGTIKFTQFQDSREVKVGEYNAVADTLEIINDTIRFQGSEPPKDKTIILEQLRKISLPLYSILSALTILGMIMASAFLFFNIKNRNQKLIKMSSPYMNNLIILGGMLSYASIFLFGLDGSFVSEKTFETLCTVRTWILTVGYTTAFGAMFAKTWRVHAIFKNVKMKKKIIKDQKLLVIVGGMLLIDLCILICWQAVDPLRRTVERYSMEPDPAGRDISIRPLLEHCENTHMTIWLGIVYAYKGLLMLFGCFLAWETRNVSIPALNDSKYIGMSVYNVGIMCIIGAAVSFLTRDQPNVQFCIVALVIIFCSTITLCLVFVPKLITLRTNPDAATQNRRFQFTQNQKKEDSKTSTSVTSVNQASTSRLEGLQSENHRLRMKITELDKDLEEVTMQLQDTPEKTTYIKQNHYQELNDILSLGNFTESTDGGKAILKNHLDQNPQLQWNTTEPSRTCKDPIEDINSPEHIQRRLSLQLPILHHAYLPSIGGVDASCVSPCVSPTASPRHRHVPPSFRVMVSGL
T1 sequence (Q9Z0U4 17-960 limits assumed): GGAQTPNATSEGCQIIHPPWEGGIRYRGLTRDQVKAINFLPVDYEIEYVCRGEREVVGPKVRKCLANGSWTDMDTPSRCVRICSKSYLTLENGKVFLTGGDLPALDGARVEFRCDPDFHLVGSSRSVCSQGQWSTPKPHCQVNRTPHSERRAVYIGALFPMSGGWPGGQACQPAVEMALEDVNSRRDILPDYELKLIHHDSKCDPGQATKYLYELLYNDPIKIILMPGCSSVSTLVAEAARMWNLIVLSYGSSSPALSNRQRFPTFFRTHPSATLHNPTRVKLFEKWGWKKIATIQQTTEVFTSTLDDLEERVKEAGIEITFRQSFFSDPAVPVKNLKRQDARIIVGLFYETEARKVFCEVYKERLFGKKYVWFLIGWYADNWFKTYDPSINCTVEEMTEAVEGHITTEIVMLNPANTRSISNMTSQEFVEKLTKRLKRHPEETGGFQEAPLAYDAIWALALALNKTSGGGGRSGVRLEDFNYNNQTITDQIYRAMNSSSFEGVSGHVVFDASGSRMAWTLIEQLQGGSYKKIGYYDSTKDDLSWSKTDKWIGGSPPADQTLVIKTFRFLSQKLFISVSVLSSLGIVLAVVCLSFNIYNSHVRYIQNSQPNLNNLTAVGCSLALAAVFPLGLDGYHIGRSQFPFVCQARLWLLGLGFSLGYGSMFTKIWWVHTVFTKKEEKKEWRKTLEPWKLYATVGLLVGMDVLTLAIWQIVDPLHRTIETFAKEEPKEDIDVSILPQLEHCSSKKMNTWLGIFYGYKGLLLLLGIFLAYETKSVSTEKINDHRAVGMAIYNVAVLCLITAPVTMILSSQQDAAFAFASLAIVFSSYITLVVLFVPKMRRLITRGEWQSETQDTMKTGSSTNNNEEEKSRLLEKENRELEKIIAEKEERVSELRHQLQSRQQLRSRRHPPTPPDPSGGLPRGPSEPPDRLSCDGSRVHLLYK

| EC50 (GABAB receptor) [nM] | SMILES | inhibition in vivo at 1 mg/kg (male Wistar rats) [%] | inhibition in vivo at 10 mg/kg (male Wistar rats) [%] | inhibition in vivo at 3 mg/kg (male Wistar rats) [%] |
| --- | --- | --- | --- | --- |
| < 100 | Cc1nc2cc([C@H]3CC[C@H](C(F)(F)F)CC3)nn2c([C@@H]2CN(C=O)CC[C@@H]2C)c1C [Example 58] | 44 | – | – |
| < 100 | COC(=O)N1CCO[C@@H](c2cc(C)nc3c(F)c([C@H]4CC[C@H](C(F)(F)F)CC4)nn23)C1 [Example 117] | 73 | – | – |
| 100 to 1000 | CCc1c(C)nc2cc([C@H]3CC[C@H](C(F)(F)F)CC3)nn2c1[C@@H]1CCCN(C(C)=O)C1 [Example 39] | – | – | 33 |
| 100 to 1000 | COC(=O)N1CCC[C@@H](c2c(C)c(C)nc3cc([C@H]4CC[C@H](C(F)(F)F)CC4)nn23)C1 [Example 47] | – | 63 | – |
| < 100 | Cc1nc2cc([C@H]3CC[C@H](C(F)(F)F)CC3)nn2c(C2CN(C=O)CC(F)(F)C2)c1C (stereo partly shown) [Example 75] | 19 | – | – |
| 100 to 1000 | CC(=O)N1CCC[C@@H](c2cc(C)nc3cc([C@H]4CC[C@H](C(F)(F)F)CC4)nn23)C1 [Example 32] | – | – | 68 |
| 100 to 1000 | Cc1cc([C@H]2CN(C(=O)N(C)C)CCO2)n2nc([C@H]3CC[C@H](C(F)(F)F)CC3)cc2n1 [Example 112] | 72 | – | – |
| 100 to 1000 | CCOC(=O)N1CCO[C@@H](c2cc(C)nc3cc([C@H]4CC[C@H](C(F)(F)F)CC4)nn23)C1 [Example 116] | 0 | – | – |
| 100 to 1000 | COC(=O)N1CCC[C@H](c2cc(C)nc3cc([C@H]4CC[C@H](C(F)(F)F)CC4)nn23)[C@@H]1C [Example 97] | – | – | – |
| 100 to 1000 | CCC1CCN(C(=O)OC)CC1c1cc(C)nc2cc([C@H]3CC[C@H](C(F)(F)F)CC3)nn12 (stereo partly shown) [Example 67] | – | – | – |

The remaining lines, values behind:

| SMILES | EC50 (GABAB receptor) [nM] | inhibition in vivo at 1 mg/kg (male Wistar rats) [%] | inhibition in vivo at 10 mg/kg (male Wistar rats) [%] | inhibition in vivo at 3 mg/kg (male Wistar rats) [%] |
| --- | --- | --- | --- | --- |
| Cc1cc([C@H]2CN(C=O)CC[C@@H]2C)n2nc([C@H]3CC[C@H](C(F)(F)F)CC3)cc2n1 [Example 68] | < 100 | 39 | – | – |
| CC(=O)N1CCC[C@H](c2c(C)c(C)nc3cc([C@H]4CC[C@H](C(F)(F)F)CC4)nn23)C1 [Example 43] | 100 to 1000 | – | 41 | – |
| CC(=O)N1CC[C@H](C)[C@H](c2cc(C)nc3c(F)c([C@H]4CC[C@H](C(F)(F)F)CC4)nn23)C1 (racemic) [Example 158] | 100 to 1000 | – | – | 35 |
| CCc1c(C)nc2cc([C@H]3CC[C@H](C(F)(F)F)CC3)nn2c1[C@@H]1CN(C(C)=O)CC[C@@H]1C [Example 66] | < 100 | 49 | – | – |
| Cc1cc([C@H]2CN(C(=O)c3cocn3)CCO2)n2nc([C@H]3CC[C@H](C(F)(F)F)CC3)cc2n1 [Example 113] | 100 to 1000 | 66 | – | – |
| CCc1c(C)nc2cc([C@H]3CC[C@H](C(F)(F)F)CC3)nn2c1[C@H]1CCCN(C(C)=O)C1 [Example 42] | < 100 | – | 91 | – |
| COC(=O)N1CCO[C@@H](c2cc(C)nc3cc([C@H]4CC[C@H](C(C)(C)C)CC4)nn23)C1 [Example 132] | < 100 | 65 | – | – |
| CNC(=O)N1CCO[C@@H](c2cc(C)nc3cc([C@H]4CC[C@H](C(F)(F)F)CC4)nn23)C1 [Example 111] | 100 to 1000 | 44 | – | – |
| COC(=O)N1CCO[C@@H](c2cc(C)nc3cc([C@H]4CC[C@H](C(F)(F)F)CC4)nn23)C1 [Example 91] | < 100 | 89 | – | – |
| Cc1cc([C@H]2CN(C=O)CC[C@H]2C)n2nc([C@H]3CC[C@H](C(F)(F)F)CC3)cc2n1 (single isomer, unassigned) [Example 9] | < 100 | 71 | – | – |
| CCc1c(C)nc2cc([C@H]3CC[C@H](C(F)(F)F)CC3)nn2c1C1CN(C=O)CCO1 (stereo partly shown) [Example 82] | < 100 | 86 | – | – |
| COC(=O)N1CC[C@@H](C)[C@H](c2cc(C)nc3cc([C@H]4CC[C@H](C(F)(F)F)CC4)nn23)C1 (single isomer, unassigned) [Example 5] | < 100 | 88 | – | – |
| Cc1cc([C@@H]2CCCN(C(=O)C3CC3)C2)n2nc([C@H]3CC[C@H](C(F)(F)F)CC3)cc2n1 [Example 54] | 100 to 1000 | – | – | – |
